Measured values reported in patent publication US6383812B1, “Anti liver disease drug R-YEEE and method of synthesizing branched galactose-terminal glycoproteins” (Academia Sinica, priority 1999, dated 2002).

Experiments:
[1] = molecular target: T1, asialoglycoprotein receptor (ASGPr) (Homo sapiens, UniProt P07306+P07307); assay: Affinity of synthetic ligand to the asialoglycoprotein receptor; assay type: binding; settings: relative to YEE(GalNAcAH)3; no method described
T1 sequence (P07306 1-291): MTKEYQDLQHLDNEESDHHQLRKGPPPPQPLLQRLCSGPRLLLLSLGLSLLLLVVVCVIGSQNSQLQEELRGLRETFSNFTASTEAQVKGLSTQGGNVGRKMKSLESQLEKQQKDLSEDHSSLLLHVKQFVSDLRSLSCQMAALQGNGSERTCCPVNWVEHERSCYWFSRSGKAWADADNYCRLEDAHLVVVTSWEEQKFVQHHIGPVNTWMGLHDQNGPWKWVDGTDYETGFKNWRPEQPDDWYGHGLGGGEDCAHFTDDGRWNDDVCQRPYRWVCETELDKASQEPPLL
T1 sequence (P07307 1-311): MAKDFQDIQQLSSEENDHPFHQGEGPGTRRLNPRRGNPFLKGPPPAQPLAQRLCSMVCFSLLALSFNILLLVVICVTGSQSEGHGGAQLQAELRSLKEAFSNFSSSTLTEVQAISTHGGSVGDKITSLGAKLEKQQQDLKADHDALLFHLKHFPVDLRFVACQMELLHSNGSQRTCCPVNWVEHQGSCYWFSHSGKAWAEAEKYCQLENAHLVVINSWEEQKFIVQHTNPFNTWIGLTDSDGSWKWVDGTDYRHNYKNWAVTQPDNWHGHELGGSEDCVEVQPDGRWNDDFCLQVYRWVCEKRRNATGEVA

[2] = molecular target: T1, asialoglycoprotein receptor (ASGPr); settings: reported by Lee et al., Glycoconjugate J., 1987; cited from earlier work

Substance	affinity to asialoglycoprotein receptors [1]	affinity to the ASGP-r [2]
tris-(N-acetylgalactosamine aminohexyl)glycoside of tyrosyl(glutamyl)2 glutamate [YEEE(GalNAcAH)3]	comparable to YEE(GalNAcAH)3	
tris-(N-acetylgalactosamine aminohexyl)glycoside of tyrosyl(glutamyl)glutamate [YEE(GalNAcAH)3]		subnanomolar
